In ChEMBL document CHEMBL1142222, “A-803467, a potent and selective Nav1.8 sodium channel blocker, attenuates neuropathic and inflammatory pain in the rat” (Proc Natl Acad Sci U S A, 2007):
The source made the active and inactive calls. No cut-off for these calls is given here.

Legend:
Rattus norvegicus [1] = experiment: Analgesic activity in ip dosed rat L5/L6 spinal nerve ligation-induced neuropathic pain model; assay type: functional
Rattus norvegicus [2] = experiment: Analgesic activity in rat chronic constriction injury model of mechanical allodynia at 100 mg/kg, ip; assay type: functional; conditions: route intraperitoneal
Rattus norvegicus [3] = experiment: Analgesic activity in rat chronic constriction injury model of cold allodynic neuropathic pain at 100 mg/kg, ip; assay type: functional; conditions: route intraperitoneal
Rattus norvegicus [4] = experiment: Analgesic activity in rat skin incision model of post-operative pain at 100 mg/kg, ip after 2 hrs; assay type: functional; conditions: route intraperitoneal
Rattus norvegicus [5] = experiment: Analgesic activity in ip dosed rat skin incision model of post-operative pain after 24 hrs; assay type: functional
Mus musculus = experiment: Analgesic activity in mouse visceral pain model assessed as acetic acid induced writhing at 100 mg/kg, ip; assay type: functional; conditions: route intraperitoneal
Rattus norvegicus [6] = experiment: Analgesic activity in ip dosed rat cyclophosphamide induced cyctitis model at 100 mg/kg, ip; assay type: functional; conditions: route intraperitoneal
Rattus norvegicus [7] = organism: Rattus norvegicus; experiment: Motor effect in rat by rotarod test; assay type: functional
Rattus norvegicus [8] = experiment: Motor effect in rat by rotarod test at 300 mg/kg, ip; assay type: functional; conditions: route intraperitoneal
[9] = molecular target: 5-hydroxytryptamine receptor 3A (Homo sapiens, UniProt P46098); experiment: Displacement of [3H]BRL43694 from 5HT3 receptor
Chain of 5-hydroxytryptamine receptor 3A (P46098 whole entry): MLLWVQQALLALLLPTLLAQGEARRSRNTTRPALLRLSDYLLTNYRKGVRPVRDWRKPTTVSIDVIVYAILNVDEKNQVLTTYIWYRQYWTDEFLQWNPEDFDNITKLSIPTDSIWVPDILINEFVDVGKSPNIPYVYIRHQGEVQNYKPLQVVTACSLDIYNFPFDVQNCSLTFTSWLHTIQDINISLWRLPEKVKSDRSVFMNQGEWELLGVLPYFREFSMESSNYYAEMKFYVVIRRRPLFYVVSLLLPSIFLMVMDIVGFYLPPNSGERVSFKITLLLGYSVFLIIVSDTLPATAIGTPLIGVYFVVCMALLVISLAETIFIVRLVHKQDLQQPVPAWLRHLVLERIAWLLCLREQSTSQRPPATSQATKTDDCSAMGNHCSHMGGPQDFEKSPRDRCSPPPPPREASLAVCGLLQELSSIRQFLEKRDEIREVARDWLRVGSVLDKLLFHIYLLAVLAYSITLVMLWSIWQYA

[10] = molecular target: 5-hydroxytryptamine receptor 5A (Homo sapiens, UniProt P47898); experiment: Displacement of [3H]LSD from 5HT5A receptor
[11] = molecular target: 5-hydroxytryptamine receptor 6 (Homo sapiens, UniProt P50406); experiment: Displacement of [3H]LSD from 5HT6 receptor
Chain of 5-hydroxytryptamine receptor 6 (P50406 whole entry): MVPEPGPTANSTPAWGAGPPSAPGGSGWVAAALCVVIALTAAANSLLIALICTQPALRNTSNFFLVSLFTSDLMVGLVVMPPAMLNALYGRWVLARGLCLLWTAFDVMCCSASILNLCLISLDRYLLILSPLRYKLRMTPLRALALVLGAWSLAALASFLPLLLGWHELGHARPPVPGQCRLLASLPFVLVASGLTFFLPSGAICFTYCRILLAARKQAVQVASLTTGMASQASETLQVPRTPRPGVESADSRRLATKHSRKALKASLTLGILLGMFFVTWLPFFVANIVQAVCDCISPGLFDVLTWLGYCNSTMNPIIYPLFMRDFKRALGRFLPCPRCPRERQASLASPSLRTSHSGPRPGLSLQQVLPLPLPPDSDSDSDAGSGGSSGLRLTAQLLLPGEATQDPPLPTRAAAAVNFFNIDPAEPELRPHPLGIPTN

DRG neuron [12] = experiment: Suppression of spontaneous firing of rat DRG neurons at 0.3 uM; assay type: functional, cell-based
[13] = Elimination half life in iv dosed rat; assay type: ADME, organism-based; conditions: in vivo
[14] = Tmax in rat at 10 mg/kg, po; assay type: ADME, organism-based; set-up: dose 10 mg/kg, route oral; conditions: in vivo
[15] = molecular target: Voltage-dependent N-type calcium channel subunit alpha-1B (Homo sapiens, UniProt Q00975); experiment: Inhibition of Cav2.2 channel
[16] = molecular target: Potassium voltage-gated channel subfamily KQT member 3 (Homo sapiens, UniProt O43525); experiment: Inhibition of KCNQ3 channel
DRG neuron [17] = experiment: Suppression of evoked action potential firing in rat DRG neurons at 0.3 uM; assay type: functional, cell-based
[18] = Cmax in rat at 10 mg/kg, ip; assay type: ADME, organism-based; set-up: dose 10 mg/kg, route intraperitoneal; conditions: in vivo
[19] = Tmax in rat at 10 mg/kg, ip; assay type: ADME, organism-based; set-up: dose 10 mg/kg, route intraperitoneal; conditions: in vivo
Rattus norvegicus [20] = organism: Rattus norvegicus; experiment: Analgesic activity in rat spinal nerve ligation model at 200 to 300 nM; assay type: functional
Rattus norvegicus [21] = experiment: Antinociceptive activity in rat assessed as reduction of von Frey evoked firing of spinal dorsal horn wide dynamic range neurons at 20 mg/kg, iv; assay type: functional, Dorsal horn of spinal cord; set-up: scale not given: the % may be the effect or the level left
Rattus norvegicus [22] = experiment: Analgesic activity in rat acute thermal stimulation nociception model assessed as paw withdrawal latency at 100 mg/kg, ip; assay type: functional; conditions: route intraperitoneal
Rattus norvegicus [23] = experiment: Analgesic activity in rat acute mechanical stimulation nociception model assessed as paw withdrawal latency at 100 mg/kg, ip; assay type: functional; conditions: route intraperitoneal
Rattus norvegicus [24] = experiment: Analgesic activity in rat formalin flinching inflammatory pain model at 300 mg/kg, ip; assay type: functional; conditions: route intraperitoneal
Rattus norvegicus [25] = experiment: Analgesic activity in ip dosed rat carrageenan-induced […] pain model; assay type: functional
Rattus norvegicus [26] = experiment: Analgesic activity in ip dosed rat complete Freund's adjuvant-induced thermal hyperalgesia model assessed as paw withdrawal latency after 2 days; assay type: functional; conditions: 48 h
Rattus norvegicus [27] = experiment: Analgesic activity in rat complete Freund's adjuvant-induced thermal hyperalgesia model assessed as paw withdrawal latency at 100 mg/kg, ip after 2 days; assay type: functional; conditions: route intraperitoneal
Rattus norvegicus [28] = experiment: Analgesic activity in ip dosed rat complete Freund's adjuvant-induced thermal hyperalgesia model assessed as paw withdrawal latency after 4 days; assay type: functional; conditions: 96 h
Rattus norvegicus [29] = experiment: Motor effect in rat assessed as latency to fall at 300 mg/kg, ip by edge balance test; assay type: functional; conditions: route intraperitoneal
Adenosine receptor A3 = Adenosine receptor A3 (Homo sapiens, UniProt P0DMS8); experiment: Displacement of [125I]AB-MECA from adenosine A3 receptor
[30] = Displacement of [3H]prazosin from adrenergic alpha-1 receptor
[31] = molecular target: Alpha-2A adrenergic receptor (Homo sapiens, UniProt P08913); experiment: Displacement of [3H]RX821002 from adrenergic alpha-2 receptor
ADRB1 = ADRB1 (Homo sapiens, UniProt P08588); experiment: Displacement of [3H](-)CGP-12177 from adrenergic beta-1 receptor
D(1A) dopamine receptor = D(1A) dopamine receptor (Homo sapiens, UniProt P21728); experiment: Displacement of [3H]SCH-23390 from dopamine D1 receptor
D(2) dopamine receptor = D(2) dopamine receptor (Homo sapiens, UniProt P14416); experiment: Displacement of [3H]spiperone from dopamine D2 receptor
Chain of D(2) dopamine receptor (P14416 whole entry): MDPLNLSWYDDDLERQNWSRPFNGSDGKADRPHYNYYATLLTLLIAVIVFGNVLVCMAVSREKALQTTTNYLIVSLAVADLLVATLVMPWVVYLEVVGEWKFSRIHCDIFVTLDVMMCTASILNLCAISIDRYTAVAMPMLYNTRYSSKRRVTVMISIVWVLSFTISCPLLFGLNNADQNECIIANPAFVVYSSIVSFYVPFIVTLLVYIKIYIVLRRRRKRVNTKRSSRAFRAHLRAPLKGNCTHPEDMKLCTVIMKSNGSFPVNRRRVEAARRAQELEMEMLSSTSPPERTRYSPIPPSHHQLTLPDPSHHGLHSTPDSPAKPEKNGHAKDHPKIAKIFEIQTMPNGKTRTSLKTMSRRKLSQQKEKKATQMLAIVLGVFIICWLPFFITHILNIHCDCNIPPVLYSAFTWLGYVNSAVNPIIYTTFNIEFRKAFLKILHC

P2X purinoceptor 2 [32] = molecular target: T1, P2X purinoceptor 2 (Homo sapiens, UniProt Q9UBL9); experiment: Inhibition of P2X2 receptor
T1 sequence (Q9UBL9 whole entry): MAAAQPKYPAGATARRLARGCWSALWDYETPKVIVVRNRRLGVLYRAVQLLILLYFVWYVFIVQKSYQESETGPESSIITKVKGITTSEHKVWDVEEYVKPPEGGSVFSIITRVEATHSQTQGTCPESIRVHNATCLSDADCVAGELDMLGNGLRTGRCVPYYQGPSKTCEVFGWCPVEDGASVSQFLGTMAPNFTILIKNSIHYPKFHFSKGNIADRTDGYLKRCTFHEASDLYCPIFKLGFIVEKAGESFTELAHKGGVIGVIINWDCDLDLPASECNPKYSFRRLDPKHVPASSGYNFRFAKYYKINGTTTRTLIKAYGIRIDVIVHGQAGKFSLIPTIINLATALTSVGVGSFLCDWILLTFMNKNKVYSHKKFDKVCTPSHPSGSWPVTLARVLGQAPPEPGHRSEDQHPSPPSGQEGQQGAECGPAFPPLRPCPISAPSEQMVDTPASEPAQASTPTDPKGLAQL

[33] = molecular target: Transient receptor potential cation channel subfamily V member 1 (Homo sapiens, UniProt Q8NER1); experiment: Inhibition of TRPV1
[34] = molecular target: T2, Sodium channel protein type 10 subunit alpha (Homo sapiens, UniProt Q9Y5Y9); experiment: Inhibition of human Nav1.8 channel expressed in human HEK293 cells by patch clamp method; assay type: cell-based
T2 sequence (Q9Y5Y9 whole entry): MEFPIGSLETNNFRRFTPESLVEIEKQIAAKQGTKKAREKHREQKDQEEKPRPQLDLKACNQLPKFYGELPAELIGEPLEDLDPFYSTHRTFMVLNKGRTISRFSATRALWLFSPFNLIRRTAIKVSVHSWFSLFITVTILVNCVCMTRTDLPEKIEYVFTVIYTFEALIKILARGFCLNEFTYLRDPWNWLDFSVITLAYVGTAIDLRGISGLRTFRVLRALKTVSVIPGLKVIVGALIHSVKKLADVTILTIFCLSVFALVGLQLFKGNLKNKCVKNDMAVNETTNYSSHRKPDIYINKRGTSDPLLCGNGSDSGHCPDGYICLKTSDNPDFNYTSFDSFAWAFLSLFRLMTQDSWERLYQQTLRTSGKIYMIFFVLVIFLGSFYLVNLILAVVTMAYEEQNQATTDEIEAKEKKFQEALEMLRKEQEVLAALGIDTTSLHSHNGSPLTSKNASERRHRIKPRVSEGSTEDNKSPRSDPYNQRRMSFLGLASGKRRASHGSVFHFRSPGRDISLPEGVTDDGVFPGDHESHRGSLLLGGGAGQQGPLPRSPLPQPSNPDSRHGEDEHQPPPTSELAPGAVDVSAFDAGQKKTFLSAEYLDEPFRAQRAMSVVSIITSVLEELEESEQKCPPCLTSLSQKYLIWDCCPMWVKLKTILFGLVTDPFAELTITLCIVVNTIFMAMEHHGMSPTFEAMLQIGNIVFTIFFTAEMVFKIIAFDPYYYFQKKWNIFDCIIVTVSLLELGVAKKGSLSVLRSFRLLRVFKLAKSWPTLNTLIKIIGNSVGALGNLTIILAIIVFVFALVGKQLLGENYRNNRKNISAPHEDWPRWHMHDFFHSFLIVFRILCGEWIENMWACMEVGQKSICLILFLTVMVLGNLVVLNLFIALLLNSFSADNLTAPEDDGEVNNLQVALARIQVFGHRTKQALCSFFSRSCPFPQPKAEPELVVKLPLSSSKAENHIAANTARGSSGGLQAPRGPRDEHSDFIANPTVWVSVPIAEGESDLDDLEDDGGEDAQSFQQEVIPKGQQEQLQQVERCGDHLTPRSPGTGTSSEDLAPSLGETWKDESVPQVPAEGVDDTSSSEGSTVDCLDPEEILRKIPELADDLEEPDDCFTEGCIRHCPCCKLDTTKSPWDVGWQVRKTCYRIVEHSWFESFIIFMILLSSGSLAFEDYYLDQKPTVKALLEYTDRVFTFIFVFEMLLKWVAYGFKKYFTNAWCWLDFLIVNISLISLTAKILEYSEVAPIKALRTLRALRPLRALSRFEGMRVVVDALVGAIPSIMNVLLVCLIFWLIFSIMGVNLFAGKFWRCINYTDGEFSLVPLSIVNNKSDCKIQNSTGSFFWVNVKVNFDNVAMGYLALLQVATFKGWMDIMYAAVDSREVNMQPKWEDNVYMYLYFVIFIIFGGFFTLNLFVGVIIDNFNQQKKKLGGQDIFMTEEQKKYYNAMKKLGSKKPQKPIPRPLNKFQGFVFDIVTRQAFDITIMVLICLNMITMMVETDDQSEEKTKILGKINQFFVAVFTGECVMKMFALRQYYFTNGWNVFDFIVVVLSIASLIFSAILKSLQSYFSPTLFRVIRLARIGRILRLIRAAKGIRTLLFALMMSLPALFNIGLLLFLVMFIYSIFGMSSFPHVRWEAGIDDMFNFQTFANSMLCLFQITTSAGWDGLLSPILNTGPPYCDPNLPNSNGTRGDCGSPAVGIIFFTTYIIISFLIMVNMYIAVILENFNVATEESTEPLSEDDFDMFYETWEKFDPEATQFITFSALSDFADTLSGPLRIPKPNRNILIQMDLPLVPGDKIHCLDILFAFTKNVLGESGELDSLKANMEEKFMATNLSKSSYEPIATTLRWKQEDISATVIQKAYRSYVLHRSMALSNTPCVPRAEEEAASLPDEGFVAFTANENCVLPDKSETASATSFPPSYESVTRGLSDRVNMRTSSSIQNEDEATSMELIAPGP

[35] = molecular target: Sodium channel protein type 10 subunit alpha (Rattus norvegicus, UniProt Q62968); experiment: Inhibition of Nav1.8 channel in rat dorsal root ganglion neurons assessed as blockade of TTX-R current by patch clamp method; assay type: tissue-based
[36] = molecular target: T2, Sodium channel protein type 10 subunit alpha; experiment: Inhibition of human Nav1.8 channel expressed in HEK293 cells at -100 mV by patch clamp method; assay type: cell-based
[37] = molecular target: T2, Sodium channel protein type 10 subunit alpha; experiment: Inhibition of human Nav1.8 channel expressed in HEK293 cells at -40 mV by patch clamp method; assay type: cell-based
P2X purinoceptor 3 = P2X purinoceptor 3 (Homo sapiens, UniProt P56373); experiment: Inhibition of P2X3 receptor
Rattus norvegicus [38] = experiment: Analgesic activity in ip dosed rat complete Freund's adjuvant-induced mechanical hyperalgesia model assessed as paw withdrawal latency after 4 days; assay type: functional; conditions: 96 h
D(3) dopamine receptor = D(3) dopamine receptor (Homo sapiens, UniProt P35462); experiment: Displacement of [3H]spiperone from dopamine D3 receptor
D(4) dopamine receptor = D(4) dopamine receptor (Homo sapiens, UniProt P21917); experiment: Displacement of [3H]spiperone from dopamine D4.4 receptor
Chain of D(4) dopamine receptor (P21917 whole entry): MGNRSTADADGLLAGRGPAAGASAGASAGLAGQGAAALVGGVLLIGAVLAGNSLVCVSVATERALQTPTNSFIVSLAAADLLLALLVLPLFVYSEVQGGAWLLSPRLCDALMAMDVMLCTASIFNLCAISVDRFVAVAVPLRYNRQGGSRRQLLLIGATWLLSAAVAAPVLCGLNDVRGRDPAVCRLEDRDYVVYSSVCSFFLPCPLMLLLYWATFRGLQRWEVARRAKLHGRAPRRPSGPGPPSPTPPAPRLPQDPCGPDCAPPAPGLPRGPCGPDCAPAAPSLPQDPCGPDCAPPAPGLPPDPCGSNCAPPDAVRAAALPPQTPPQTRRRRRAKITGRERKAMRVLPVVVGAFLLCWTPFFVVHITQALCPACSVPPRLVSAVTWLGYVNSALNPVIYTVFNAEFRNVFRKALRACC

[39] = Displacement of [3H]GABA from GABA receptor
[40] = molecular target: C-X-C chemokine receptor type 2 (Homo sapiens, UniProt P25025); experiment: Displacement of [125I]IL8 from CXCR2 receptor
[41] = molecular target: C-C chemokine receptor type 1 (Homo sapiens, UniProt P32246); experiment: Displacement of [125I]MIP1-alpha from CCR1 receptor
Chain of C-C chemokine receptor type 1 (P32246 whole entry): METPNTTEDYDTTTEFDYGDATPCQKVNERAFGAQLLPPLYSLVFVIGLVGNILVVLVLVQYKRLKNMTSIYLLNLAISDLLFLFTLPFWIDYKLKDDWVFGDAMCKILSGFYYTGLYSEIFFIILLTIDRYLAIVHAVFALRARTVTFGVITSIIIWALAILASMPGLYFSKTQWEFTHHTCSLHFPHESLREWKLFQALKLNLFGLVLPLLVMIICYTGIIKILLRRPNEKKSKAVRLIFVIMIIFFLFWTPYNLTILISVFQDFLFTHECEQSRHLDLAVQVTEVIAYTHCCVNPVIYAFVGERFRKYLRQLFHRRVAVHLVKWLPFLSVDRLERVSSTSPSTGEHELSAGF

[42] = molecular target: Muscarinic acetylcholine receptor M4 (Homo sapiens, UniProt P08173); experiment: Displacement of [3H]4DAMP from muscarinic M4 receptor
Chain of Muscarinic acetylcholine receptor M4 (P08173 whole entry): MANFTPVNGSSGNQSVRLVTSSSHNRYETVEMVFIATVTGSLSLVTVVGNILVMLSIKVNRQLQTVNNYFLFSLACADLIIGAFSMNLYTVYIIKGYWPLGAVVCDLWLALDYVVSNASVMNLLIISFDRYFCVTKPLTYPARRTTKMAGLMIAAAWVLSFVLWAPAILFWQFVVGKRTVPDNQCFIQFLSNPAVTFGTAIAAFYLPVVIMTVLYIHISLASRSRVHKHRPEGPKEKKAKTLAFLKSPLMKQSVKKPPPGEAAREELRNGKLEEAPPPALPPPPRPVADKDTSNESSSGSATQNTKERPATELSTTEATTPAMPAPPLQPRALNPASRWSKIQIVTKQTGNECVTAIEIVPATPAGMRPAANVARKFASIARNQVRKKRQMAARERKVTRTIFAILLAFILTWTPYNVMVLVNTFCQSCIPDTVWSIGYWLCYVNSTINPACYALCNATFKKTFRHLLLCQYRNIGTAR

[43] = molecular target: Delta-type opioid receptor (Homo sapiens, UniProt P41143); experiment: Displacement of [3H]DADLE from opioid delta receptor
[44] = molecular target: Kappa-type opioid receptor (Homo sapiens, UniProt P41145); experiment: Displacement of [3H]U-69593 from opioid kappa receptor
[45] = Displacement of [3H]PACAP1-27 from PACAP PAC1 receptor
P2X purinoceptor 2 [46] = molecular target: T1, P2X purinoceptor 2; experiment: Displacement of [3H]alpha,beta-methyl ATP from P2X receptor

## COc1cc(NC(=O)c2ccc(-c3ccc(Cl)cc3)o2)cc(OC)c1
Rattus norvegicus [1]
  ED50: 47 mg/kg
Rattus norvegicus [2]
  Activity: 56%
Rattus norvegicus [3]
  Activity: 61%
Rattus norvegicus [4]
  Activity: 14%
Rattus norvegicus [5]
  ED50: > 100 mg/kg
Mus musculus
  Activity: 34%
Rattus norvegicus [6]
  Activity: 0%
Rattus norvegicus [7]
  ED50: > 300 mg/kg
Rattus norvegicus [8]
  Activity: 0%
[9]
  IC50: > 10 µM
[10]
  IC50: > 10 µM
[11]
  IC50: > 10 µM
DRG neuron [12]
  Activity: Active
[13]
  half-life: 4.9 h
[14]
  Tmax: 1.5 h
[15]
  IC50: > 10 µM
[16]
  IC50: > 10 µM
DRG neuron [17]
  Activity: Active
[18]
  Cmax: 350 ng/mL
[19]
  Tmax: 1.6 h
Rattus norvegicus [20]
  Activity: >70%
Rattus norvegicus [21]
  Activity: 53%
Rattus norvegicus [22]
  Activity: 0%
Rattus norvegicus [23]
  Activity: 70%
Rattus norvegicus [24]
  Activity: 9%
Rattus norvegicus [25]
  ED50: 100 mg/kg
Rattus norvegicus [26]
  ED50: 100 mg/kg
Rattus norvegicus [27]
  Activity: 64%
Rattus norvegicus [28]
  ED50: 100 mg/kg
Rattus norvegicus [29]
  Activity: 0%
Adenosine receptor A3
  IC50: 12 µM
[30]
  IC50: > 10 µM
[31]
  IC50: > 10 µM
ADRB1
  IC50: > 10 µM
D(1A) dopamine receptor
  IC50: 7 µM
D(2) dopamine receptor
  IC50: > 10 µM
P2X purinoceptor 2 [32]
  IC50: > 10 µM
[33]
  IC50: > 10 µM
[34]
  IC50: 0.008 µM
[35]
  IC50: 0.14 µM
[36]
  IC50: 0.079 µM
[37]
  IC50: 0.008 µM
P2X purinoceptor 3
  IC50: > 10 µM
Rattus norvegicus [38]
  ED50: > 100 mg/kg
D(3) dopamine receptor
  IC50: > 10 µM
D(4) dopamine receptor
  IC50: > 10 µM
[39]
  IC50: > 10 µM
[40]
  IC50: > 10 µM
[41]
  IC50: > 10 µM
[42]
  IC50: > 10 µM
[43]
  IC50: > 10 µM
[44]
  IC50: > 10 µM
[45]
  IC50: > 10 µM
P2X purinoceptor 2 [46]
  IC50: > 10 µM
